Measured values taken from patent US8748461B2, “Metalloenzyme inhibitor compounds” (Viamet Pharmaceuticals, Inc., priority 2011, dated 2014).
≈ marks a conversion by molar mass, not a printed value.

Tests used:
[1] = tested on: Septoria tritici (ATCC 26517); test: Minimum Inhibitory Concentration (MIC) vs. Septoria tritici; format: cell-based; details: Zymoseptoria tritici, ATCC26517, 168 h; 50% reduction in growth of S. tritici; 22° C., seven days; read-out: Septoria Rating (MIC)
Description: C. Minimum Inhibitory Concentration (MIC) vs. Septoria tritici Compounds were assessed for their ability to inhibit the growth of a common strain of the fungal plant pathogen Septoria tritici (ATCC 26517) using a procedure based on a Clinical and Laboratory Standards Institute (CLSI) microdilution assay protocol for filamentous fungi. Stock solutions of the test compounds and standards were prepared in DMSO at 6400 μg/mL. Each stock solution was used to prepare a 2-fold dilution series ranging from 16 to 0.016 μg/mL (total of 11 compound concentrations) in RPMI-1640 (Roswell Park Memorial Institute) medium containing 3-(N-morpholino)propanesulfonic acid (MOPS) buffer and 2% DMSO. A 100 μL aliquot of the dilutions was added to columns 1 (16 μg/mL compound) through 11 (0.016 μg/mL compound) of a 96-well microtiter plate. This format was replicated in a second row of the microtiter plate. Thus, each microtiter plate could include 11 concentrations of four test or control compounds replicated twice. A 100 μL aliquot of RPMI-1640/MOPS/2% DMSO medium was added to column 12 (no compound control) of the microtiter plate. A fresh culture of S. tritici was used to prepare a solution of approximately 5×10^4 colony-forming units per milliliter (cfu/mL) in RPMI/MOPS medium without DMSO. A 100 μL aliquot of this solution was added to all 96 wells in the microtiter plate. […] The assay plates were incubated at 22° C. for seven days in the dark without shaking. […] In each case of Table 3, the Septoria rating scale is as follows: […]

[2] = tested on: Puccinia recondita tritici = Puccinia triticina; test: Fungicidal activity vs. leaf rust on wheat plants; format: in vivo; details: 50 ppm spray on wheat (Yuma), inoculated the following day, evaluated 7-9 days later; read-out: Puccinia Rating (% Disease Control @ 50 ppm)
Source text: D. Evaluation of Fungicidal Activity Vs. Leaf Rust (Causal Agent Puccinia recondita Tritici=Puccinia triticina; Bayer code PUCCRT). […] Each pot contained 3-8 seedlings. These plants were sprayed until wet with the formulated test compounds. The compounds were formulated at 50 ppm in 10 vol. % acetone plus 90 vol. % Triton X water (deionized water 99.99 wt %+0.01 wt % Triton X100), giving a “formulated test compound.” Formulated test compounds were applied to plants using a turn table sprayer fitted with two opposing air atomization nozzles which delivered approximately 1500 L/ha of spray volume. On the following day, the leaves were inoculated with an aqueous spore suspension of Puccinia recondita tritici and the plants were kept in high humidity overnight to permit spores to germinate and infect the leaf. The plants were then transferred to a greenhouse until disease developed on untreated control plants. Disease severity was evaluated 7-9 days later, depending on the speed of disease development. In each case of Table 3, the Puccinia rating scale is as follows: […]

Row | SMILES | MIC [1] | pest or weed control at 50 ppm [2]
1 | N#Cc1cc(Oc2ccc(C(F)(F)C(O)(Cn3cnnn3)c3ccc(F)cc3F)nc2)ccn1 (stereo not shown) [Compound 96, 4-((6-(2-(2,4-difluorophenyl)-1,1-difluoro-2-hydroxy-3-(1H-tetrazol-1-yl)propyl)pyridin-3-yl)oxy)picolinonitrile] | 1.5 to 4 µg/mL (≈ 3.18 to 8.49 µM) | 60 to 79%
2 | N#CCOc1ccc(C(F)(F)C(O)(Cn2cnnn2)c2ccc(F)cc2F)nc1 (stereo not shown) [Compound 29, 2-((6-(2-(2,4-Difluorophenyl)-1,1-difluoro-2-hydroxy-3-(1H-tetrazol-1-yl)propyl)pyridin-3-yl)oxy)acetonitrile] | 1.5 to 4 µg/mL (≈ 3.67 to 9.8 µM) | 
3 | N#Cc1cc(COc2ccc(C(F)(F)C(O)(Cn3ncnn3)c3ccc(F)cc3F)nc2)ccc1F (stereo not shown) [Compound 66, 5-(((6-(2-(2,4-Difluorophenyl)-1,1-difluoro-2-hydroxy-3-(2H-tetrazol-2-yl)propyl)pyridin-3-yl)oxy)methyl)-2-fluorobenzonitrile] | > 4 µg/mL | 
4 | OC(Cn1ncnn1)(c1ccc(Cl)cc1F)C(F)(F)c1ccc(OCC(F)(F)F)cn1 (stereo not shown) [Compound 72, 2-(4-Chloro-2-fluorophenyl)-1,1-difluoro-3-(2H-tetrazol-2-yl)-1-(5-(2,2,2-trifluoroethoxy)pyridin-2-yl)propan-2-ol] | > 4 µg/mL | 
5 | OC(Cn1ccnn1)(c1ccc(F)cc1F)C(F)(F)c1ccc(OCc2cccc(F)c2F)cn1 (stereo not shown) [Compound 44, 1-(5-((2,3-Difluorobenzyl)oxy)pyridin-2-yl)-2-(2,4-difluorophenyl)-1,1-difluoro-3-(1H-1,2,3-triazol-1-yl)propan-2-ol] | 1.5 to 4 µg/mL (≈ 3.03 to 8.09 µM) | 
6 | CC#CCOc1ccc(C(F)(F)C(O)(Cn2ncnn2)c2ccc(Cl)cc2F)nc1 (stereo not shown) [Compound 64, 1-(5-(But-2-yn-1-yloxy)pyridin-2-yl)-2-(4-chloro-2-fluorophenyl)-1,1-difluoro-3-(2H-tetrazol-2-yl)propan-2-ol] | > 4 µg/mL | 
7 | C=COc1ccc(C(F)(F)C(O)(Cn2cnnn2)c2ccc(F)cc2F)nc1 (stereo not shown) [Compound 14, 2-(2,4-Difluorophenyl)-1,1-difluoro-3-(1H-tetrazol-1-yl)-1-(5-(vinyloxy)pyridin-2-yl)propan-2-ol] | 1.5 to 4 µg/mL (≈ 3.79 to 10.1 µM) | 
8 | N#Cc1ccc(COc2ccc(C(F)(F)C(O)(Cn3ncnn3)c3ccc(Cl)cc3F)nc2)cc1 (stereo not shown) [Compound 56, 4-(((6-(2-(4-Chloro-2-fluorophenyl)-1,1-difluoro-2-hydroxy-3-(2H-tetrazol-2-yl)propyl)pyridin-3-yl)oxy)methyl)benzonitrile] | 1.5 to 4 µg/mL (≈ 2.99 to 7.99 µM) | 
9 | CC#CCOc1ccc(C(F)(F)C(O)(Cn2ncnn2)c2ccc(F)cc2F)nc1 (stereo not shown) [Compound 33, 1-(5-(But-2-yn-1-yloxy)pyridin-2-yl)-2-(2,4-difluorophenyl)-1,1-difluoro-3-(2H-tetrazol-2-yl)propan-2-ol] | > 4 µg/mL | 
10 | N#Cc1ccc(COc2ccc(C(F)(F)C(O)(Cn3ncnn3)c3ccc(F)cc3F)nc2)nc1 (stereo not shown) [Compound 51, 6-(((6-(2-(2,4-Difluorophenyl)-1,1-difluoro-2-hydroxy-3-(2H-tetrazol-2-yl)propyl)pyridin-3-yl)oxy)methyl)nicotinonitrile] | > 4 µg/mL | 

Continued, in another order:

Row | MIC [1] | SMILES | pest or weed control at 50 ppm [2]
11 | ≤ 0.5 µg/mL | CO/N=C/c1ccc(Oc2ccc(C(F)(F)C(O)(Cn3cnnn3)c3ccc(F)cc3F)nc2)nc1 (stereo not shown) [Compound 102, (E)-6-((6-(2-(2,4-difluorophenyl)-1,1-difluoro-2-hydroxy-3-(1H-tetrazol-1-yl)propyl)pyridin-3-yl)oxy)nicotinaldehyde O-methyl oxime] | 80 to 100%
12 | ≤ 0.5 µg/mL | OC(Cn1cnnn1)(c1ccc(F)cc1F)C(F)(F)c1ccc(OCc2ccc(Cl)cn2)cn1 (stereo not shown) [Compound 113, 1-(5-((5-chloropyridin-2-yl)methoxy)pyridin-2-yl)-2-(2,4-difluorophenyl)-1,1-difluoro-3-(1H-tetrazol-1-yl)propan-2-ol] | 80 to 100%
13 | ≤ 0.5 µg/mL | OC(Cn1cnnn1)(c1ccc(F)cc1F)C(F)(F)c1ccc(OCC(F)(F)c2ccc(OC(F)F)cc2)cn1 (stereo not shown) [Compound 120, 1-(5-(2-(4-(difluoromethoxy)phenyl)-2,2-difluoroethoxy)pyridin-2-yl)-2-(2,4-difluorophenyl)-1,1-difluoro-3-(1H-tetrazol-1-yl)propan-2-ol] | 80 to 100%
14 | ≤ 0.5 µg/mL | OC(Cn1cnnn1)(c1ccc(F)cc1F)C(F)(F)c1ccc(Oc2ncc(Cl)cn2)cn1 (stereo not shown) [Compound 98, 1-(5-((5-chloropyrimidin-2-yl)oxy)pyridin-2-yl)-2-(2,4-difluorophenyl)-1,1-difluoro-3-(1H-tetrazol-1-yl)propan-2-ol] | 80 to 100%
15 | ≤ 0.5 µg/mL | OC(Cn1cnnn1)(c1ccc(F)cc1F)C(F)(F)c1ccc(Oc2ccccc2)cn1 (stereo not shown) [Compound 11, 2-(2,4-Difluorophenyl)-1,1-difluoro-1-(5-phenoxypyridin-2-yl)-3-(1H-tetrazol-1-yl)propan-2-ol] | 80 to 100%
16 | ≤ 0.5 µg/mL | OC(Cn1cnnn1)(c1ccc(F)cc1F)C(F)(F)c1ccc(OCC(F)c2ccc(OC(F)F)cc2)cn1 (stereo not shown) [Compound 124, 1-(5-(2-(4-(difluoromethoxy)phenyl)-2-fluoroethoxy)pyridin-2-yl)-2-(2,4-difluorophenyl)-1,1-difluoro-3-(1H-tetrazol-1-yl)propan-2-ol] | 80 to 100%
17 | ≤ 0.5 µg/mL | OC(Cn1cnnn1)(c1ccc(F)cc1F)C(F)(F)c1ccc(Oc2ncc(C(F)(F)F)cn2)cn1 (stereo not shown) [Compound 105, 2-(2,4-difluorophenyl)-1,1-difluoro-3-(1H-tetrazol-1-yl)-1-(5-((5-(trifluoromethyl)pyrimidin-2-yl)oxy)pyridin-2-yl)propan-2-ol] | 80 to 100%
18 | ≤ 0.5 µg/mL | OC(Cn1cnnn1)(c1ccc(F)cc1F)C(F)(F)c1ccc(Oc2ccc(OC(F)(F)F)cc2)cn1 (stereo not shown) [Compound 76, 2-(2,4-Difluorophenyl)-1,1-difluoro-3-(1H-tetrazol-1-yl)-1-(5-(4-(trifluoromethoxy)phenoxy)pyridin-2-yl)propan-2-ol] | 80 to 100%
19 | ≤ 0.5 µg/mL | N#Cc1ccc(C(F)(F)COc2ccc(C(F)(F)C(O)(Cn3cnnn3)c3ccc(F)cc3F)nc2)cc1 (stereo not shown) [Compound 121, 4-(2-((6-(2-(2,4-difluorophenyl)-1,1-difluoro-2-hydroxy-3-(1H-tetrazol-1-yl)propyl)pyridin-3-yl)oxy)-1,1-difluoroethyl)benzonitrile] | 80 to 100%
20 | 0.5 to 1.5 µg/mL (≈ 0.863 to 2.59 µM) | OC(Cn1cnnn1)(c1ccc(F)cc1F)C(F)(F)c1ccc(Oc2ccc(/C=N/OCc3ccccc3)cn2)cn1 (stereo not shown) [Compound 103, (E)-6-((6-(2-(2,4-difluorophenyl)-1,1-difluoro-2-hydroxy-3-(1H-tetrazol-1-yl)propyl)pyridin-3-yl)oxy)nicotinaldehyde O-benzyl oxime] | 60 to 79%
21 | ≤ 0.5 µg/mL | OC(Cn1cnnn1)(c1ccc(F)cc1F)C(F)(F)c1ccc(OCc2ccc(F)c(F)c2)cn1 (stereo not shown) [Compound 28, 1-(5-((3,4-Difluorobenzyl)oxy)pyridin-2-yl)-2-(2,4-difluorophenyl)-1,1-difluoro-3-(1H-tetrazol-1-yl)propan-2-ol] | 80 to 100%
22 | 0.5 to 1.5 µg/mL (≈ 1.07 to 3.22 µM) | CC(Oc1ccc(C(F)(F)C(O)(Cn2ncnn2)c2ccc(F)cc2F)nc1)C(F)(F)F (stereo not shown) [Compound 48, 2-(2,4-Difluorophenyl)-1,1-difluoro-3-(2H-tetrazol-2-yl)-1-(5-((1,1,1-trifluoropropan-2-yl)oxy)pyridin-2-yl)propan-2-ol] | 
23 | ≤ 0.5 µg/mL | OC(Cn1cnnn1)(c1ccc(F)cc1F)C(F)(F)c1ccc(Oc2nc3ccc(Cl)cc3s2)cn1 (stereo not shown) [Compound 110, 1-(5-((6-chlorobenzo[d]thiazol-2-yl)oxy)pyridin-2-yl)-2-(2,4-difluorophenyl)-1,1-difluoro-3-(1H-tetrazol-1-yl)propan-2-ol] | 
24 | ≤ 0.5 µg/mL | OC(Cn1cnnn1)(c1ccc(F)cc1F)C(F)(F)c1ccc(OCc2cccc(OCC(F)(F)F)c2)cn1 (stereo not shown) [Compound 25, 2-(2,4-Difluorophenyl)-1,1-difluoro-3-(1H-tetrazol-1-yl)-1-(5-((3-(2,2,2-trifluoroethoxy)benzyl)oxy)pyridin-2-yl)propan-2-ol] | 
25 | ≤ 0.5 µg/mL | N#Cc1ccc(Oc2ccc(C(F)(F)C(O)(Cn3cnnn3)c3ccc(F)cc3F)nc2)cn1 (stereo not shown) [Compound 112, 5-((6-(2-(2,4-difluorophenyl)-1,1-difluoro-2-hydroxy-3-(1H-tetrazol-1-yl)propyl)pyridin-3-yl)oxy)picolinonitrile] | 
